{"source": "paper PMC9147060", "about": "“Elucidating Pathway and Anesthetic Mechanism of Action of Clove Oil Nanoformulations in Fish” (Pharmaceutics, 2022)", "molecular_target": "T1, GABAA receptor (γ-aminobutyric acid subtype A receptor)", "T1 construct": "gene Gabra1; native receptor mixture in cerebral cortical synaptosomal membranes of adult male rats", "experiment": "[3H]muscimol binding to rat cortical membranes, filtration", "settings": "enhancement of 5 nM [3H]muscimol binding; 50 mM Tris-HCl pH 7.4, 0-4 °C, 1 h; in DMSO; positive modulation"}
{"smiles": "C=CCc1ccc(O)c(OC)c1", "note": "[eugenol]", "values": [{"measurement": "EC50", "result": 1250, "unit": "µM"}]}
